Laboratory results taken from patent US7504400B2, “MTP inhibiting aryl piperydines or piperazines substituted with 5-membered heterocycles” (Janssen Pharmaceutica N.V., priority 2004, dated 2009).

Test system: Secretion of ApoB
Test: Quantification of the secretion of ApoB in HepG2 cells
Assay type: cell-based
Settings: Homo sapiens, HepG2, 24 h, 24 hours of incubation with test compound, immunoprecipitation of apoB from medium, read-out: pIC50 value (=-log IC50 value), secretion of ApoB (converted)
Method: HepG2 cells were cultured in 24-well plates in MEM Rega 3 containing 10% fetal calf serum. At 70% confluency, the medium was changed and the test compound or carrier (DMSO, 0.4% final concentration) was added. After 24 hours of incubation, the medium was transferred to Eppendorf tubes and cleared by centrifugation. A sheep antibody directed against either apoB was added to the supernatant and the mixture was kept at 8° C. for 24 hours. Then, rabbit anti-sheep antibody was added and the immune complex was allowed to precipitate for 24 hours at 8° C. The immunoprecipitate was pelleted by centrifugation for 25 minutes at 1320 g and washed twice with a buffer containing 40 mM Mops, 40 mM NaH2PO4, 100 mM NaF, 0.2 mM DTT, 5 mM EDTA, 5 mM EGTA, 1% Triton-X-100, 0.5% sodium deoxycholate (DOC), 0.1% SDS, 0.2 μM leupeptin and 0.2 μM PMSF. Radioactivity in the pellet was quantified by liquid scintillation-counting. The IC50 values are usually converted to pIC50 values (=−log IC50 value) for ease of use.

SMILES | IC50 [nM]
CC(C)n1ncn(-c2ccc(N3CCN(C(C(=O)NCc4ccccc4)c4ccccc4)CC3)nc2)c1=O (stereo not shown) [Compound 48] | 31.6 to 316
C=CCNC(=O)C(c1ccccc1)N1CCN(c2ccc(-n3cnn(C(C)C)c3=O)cn2)CC1 (stereo not shown) [Compound 49] | 316 to 3160
CCCCCn1ncn(-c2ccc(N3CCC(C(C(=O)Nc4ccccc4)c4ccccc4)CC3)cc2)c1=O (stereo not shown) [Compound 51] | 31.6 to 316
C=CCn1ncn(-c2ccc(N3CCC(C(C(=O)Nc4ccccc4)c4ccccc4)CC3)cc2)c1=O (stereo not shown) [Compound 52] | 316 to 3160
CCn1ncn(-c2ccc(N3CCC(C(C(=O)Nc4ccccc4)c4ccccc4)CC3)cc2)c1=O (stereo not shown) [Compound 53] | 316 to 3160
CC(C)n1ncn(-c2ccc(N3CCN(C(C(=O)Nc4ccc(Cl)cc4)c4ccccc4)CC3)cc2)c1=O (stereo not shown) [Compound 55] | 31.6 to 316
CC(C)n1ncn(-c2ccc(N3CCN(C(C(=O)Nc4ccccc4O)c4ccccc4)CC3)cc2)c1=O (stereo not shown) [Compound 56] | 316 to 3160
CC(C)n1ncn(-c2ccc(N3CCN(C(C(=O)Nc4cccc(C(F)(F)F)c4)c4ccccc4)CC3)cc2)c1=O (stereo not shown) [Compound 58] | 31.6 to 316
COc1cccc(NC(=O)C(c2ccccc2)N2CCN(c3ccc(-n4cnn(C(C)C)c4=O)cc3)CC2)c1 (stereo not shown) [Compound 61] | 31.6 to 316
CC(C)n1ncn(-c2ccc(N3CCN(C(C(=O)Nc4ccc5c(c4)OCCO5)c4ccccc4)CC3)cc2)c1=O (stereo not shown) [Compound 63] | 31.6 to 316
COc1cc(NC(=O)C(c2ccccc2)N2CCN(c3ccc(-n4cnn(C(C)C)c4=O)cc3)CC2)cc(C(F)(F)F)c1 (stereo not shown) [Compound 64] | 31.6 to 316
CC(C)n1ncn(-c2ccc(N3CCN(C(C(=O)NCCNc4cccc5ccccc45)c4ccccc4)CC3)cc2)c1=O (stereo not shown) [Compound 67] | 316 to 3160
CC(C)n1ncn(-c2ccc(N3CCN(C(C(=O)NCC(C)(c4ccccc4)c4ccccc4)c4ccccc4)CC3)cc2)c1=O (stereo not shown) [Compound 68] | 316 to 3160
CC(C)n1ncn(-c2ccc(N3CCN(C(C(=O)NC4Cc5ccccc5C4)c4ccccc4)CC3)cc2)c1=O (stereo not shown) [Compound 69] | 31.6 to 316
CC(C)NC(=O)C(CN1CCN(c2ccc(-n3cnn(C(C)C)c3=O)cc2)CC1)c1ccccc1 (stereo not shown) [Compound 74] | 31.6 to 316
CC(C)n1ncn(-c2ccc(N3CCN(C(C(=O)NCc4cccc(C(F)(F)F)c4)c4ccccc4)CC3)cc2)c1=O (stereo not shown) [Compound 77] | 31.6 to 316

SMILES | IC50 [nM]
COc1cc(CNC(=O)C(c2ccccc2)N2CCN(c3ccc(-n4cnn(C(C)C)c4=O)cc3)CC2)cc(OC)c1OC (stereo not shown) [Compound 78] | 316 to 3160
CC(C)n1ncn(-c2ccc(N3CCN(C(C(=O)NCc4cccc5ccccc45)c4ccccc4)CC3)cc2)c1=O (stereo not shown) [Compound 83] | 31.6 to 316
CCCn1ncn(-c2ccc(N3CCC(C(C(=O)NC(C)C)c4ccccc4)CC3)cc2)c1=O (stereo not shown) [Compound 87] | 316 to 3160
CCCCn1ncn(-c2ccc(N3CCC(C(C(=O)NC(C)C)c4ccccc4)CC3)cc2)c1=O (stereo not shown) [Compound 88] | 31.6 to 316
CCCCCn1ncn(-c2ccc(N3CCC(C(C(=O)NC(C)C)c4ccccc4)CC3)cc2)c1=O (stereo not shown) [Compound 89] | 316 to 3160
CC(C)Cn1ncn(-c2ccc(N3CCC(C(C(=O)NC(C)C)c4ccccc4)CC3)cc2)c1=O (stereo not shown) [Compound 90] | 316 to 3160
CC(C)NC(=O)C(c1ccccc1)C1CCN(c2ccc(-n3cnn(CC4CC4)c3=O)cc2)CC1 (stereo not shown) [Compound 91] | 316 to 3160
CC(C)NC(=O)C(c1ccccc1)C1CCN(c2ccc(-n3cnn(C/C=C/c4ccccc4)c3=O)cc2)CC1 (stereo not shown) [Compound 92] | 316 to 3160
CC(C)n1ncn(-c2ccc(N3CCN(CC(C(=O)NCC(F)(F)F)c4ccccc4)CC3)cc2)c1=O (stereo not shown) [Compound 98] | 31.6 to 316
CNC(=O)C(CN1CCN(c2ccc(-n3cnn(C(C)C)c3=O)cc2)CC1)c1ccccc1 (stereo not shown) [Compound 100] | 31.6 to 316
CC(C)n1ncn(-c2ccc(N3CCN(CC(C(=O)NCCC#N)c4ccccc4)CC3)cc2)c1=O (stereo not shown) [Compound 102] | 316 to 3160
C=CCNC(=O)C(CN1CCN(c2ccc(-n3cnn(C(C)C)c3=O)cc2)CC1)c1ccccc1 (stereo not shown) [Compound 103] | 31.6 to 316
CC(C)n1ncn(-c2ccc(N3CCN(CC(C(=O)NC4CC4)c4ccccc4)CC3)cc2)c1=O (stereo not shown) [Compound 104] | 316 to 3160
CC(C)CNC(=O)C(CN1CCN(c2ccc(-n3cnn(C(C)C)c3=O)cc2)CC1)c1ccccc1 (stereo not shown) [Compound 107] | 316 to 3160
COC(CNC(=O)C(CN1CCN(c2ccc(-n3cnn(C(C)C)c3=O)cc2)CC1)c1ccccc1)OC (stereo not shown) [Compound 108] | 316 to 3160

Other lines, results leading:

IC50 [nM] | SMILES
316 to 3160 | CCNC(=O)C(c1ccccc1)N1CCN(c2ccc(-n3cnn(C(C)C)c3=O)cn2)CC1 (stereo not shown) [Compound 46]
316 to 3160 | CCCNC(=O)C(c1ccccc1)N1CCN(c2ccc(-n3cnn(C(C)C)c3=O)cn2)CC1 (stereo not shown) [Compound 47]
316 to 3160 | CC(C)n1ncn(-c2ccc(N3CCN(C(C(=O)NCCC#N)c4ccccc4)CC3)nc2)c1=O (stereo not shown) [Compound 50]
31.6 to 316 | Cc1ccc(C)c(NC(=O)C(c2ccccc2)N2CCN(c3ccc(-n4cnn(C(C)C)c4=O)cc3)CC2)c1 (stereo not shown) [Compound 54]
31.6 to 316 | Cc1cccc(NC(=O)C(c2ccccc2)N2CCN(c3ccc(-n4cnn(C(C)C)c4=O)cc3)CC2)c1 (stereo not shown) [Compound 57]
31.6 to 316 | Cc1ccc(NC(=O)C(c2ccccc2)N2CCN(c3ccc(-n4cnn(C(C)C)c4=O)cc3)CC2)c(C)c1 (stereo not shown) [Compound 59]
31.6 to 316 | Cc1cc(C)cc(NC(=O)C(c2ccccc2)N2CCN(c3ccc(-n4cnn(C(C)C)c4=O)cc3)CC2)c1 (stereo not shown) [Compound 60]
31.6 to 316 | CC(C)n1ncn(-c2ccc(N3CCN(C(C(=O)Nc4ccc(F)cc4F)c4ccccc4)CC3)cc2)c1=O (stereo not shown) [Compound 62]
316 to 3160 | CC(C)n1ncn(-c2ccc(N3CCN(C(C(=O)NCc4ccco4)c4ccccc4)CC3)cc2)c1=O (stereo not shown) [Compound 65]
31.6 to 316 | CCOC(=O)CNC(=O)C(c1ccccc1)N1CCN(c2ccc(-n3cnn(C(C)C)c3=O)cc2)CC1 (stereo not shown) [Compound 66]
316 to 3160 | CC(C)n1ncn(-c2ccc(N3CCN(C(C(=O)NCc4ccccn4)c4ccccc4)CC3)cc2)c1=O (stereo not shown) [Compound 70]
316 to 3160 | COc1ccc(CNC(=O)C(c2ccccc2)N2CCN(c3ccc(-n4cnn(C(C)C)c4=O)cc3)CC2)cc1 (stereo not shown) [Compound 71]
316 to 3160 | CC(C)n1ncn(-c2ccc(N3CCN(C(C(=O)NCCc4ccccn4)c4ccccc4)CC3)cc2)c1=O (stereo not shown) [Compound 72]
316 to 3160 | CC(C)n1ncn(-c2ccc(N3CCN(C(C(=O)NCc4ccc(S(C)(=O)=O)cc4)c4ccccc4)CC3)cc2)c1=O (stereo not shown) [Compound 73]
316 to 3160 | CC(C)n1ncn(-c2ccc(N3CCN(C(C(=O)NCc4cccs4)c4ccccc4)CC3)cc2)c1=O (stereo not shown) [Compound 75]
316 to 3160 | CC(C)n1ncn(-c2ccc(N3CCN(C(C(=O)NCc4c(F)cccc4F)c4ccccc4)CC3)cc2)c1=O (stereo not shown) [Compound 79]
31.6 to 316 | CC(C)n1ncn(-c2ccc(N3CCN(C(C(=O)NCCNc4ccccc4)c4ccccc4)CC3)cc2)c1=O (stereo not shown) [Compound 80]
316 to 3160 | CC(C)n1ncn(-c2ccc(N3CCN(C(C(=O)NC4CC4)c4ccccc4)CC3)cc2)c1=O (stereo not shown) [Compound 81]

IC50 [nM] | SMILES
31.6 to 316 | COc1ccc(CCNC(=O)C(c2ccccc2)N2CCN(c3ccc(-n4cnn(C(C)C)c4=O)cc3)CC2)cc1OC (stereo not shown) [Compound 82]
316 to 3160 | CC(C)n1ncn(-c2ccc(N3CCN(C(C(=O)NCCCN(C)c4ccccc4)c4ccccc4)CC3)cc2)c1=O (stereo not shown) [Compound 84]
31.6 to 316 | CC(C)n1ncn(-c2ccc(N3CCN(C(C(=O)NCCCc4ccccc4)c4ccccc4)CC3)cc2)c1=O (stereo not shown) [Compound 85]
316 to 3160 | Cc1nn(C(C)C)c(=O)n1-c1ccc(N2CCN(C(C(=O)NCc3ccccc3)c3ccccc3)CC2)cc1 (stereo not shown) [Compound 86]
316 to 3160 | CCC(C)n1ncn(-c2ccc(N3CCN(C(C(=O)NCCO)c4ccccc4)CC3)cc2)c1=O (stereo not shown) [Compound 94]
31.6 to 316 | C=CCNC(=O)C(c1ccccc1)N1CCN(c2ccc(-n3cnn(C(C)CC)c3=O)cc2)CC1 (stereo not shown) [Compound 95]
31.6 to 316 | CCCCCNC(=O)C(c1ccccc1)N1CCN(c2ccc(-n3cnn(C(C)CC)c3=O)cc2)CC1 (stereo not shown) [Compound 96]
31.6 to 316 | COc1ccc(CNC(=O)C(c2ccccc2)N2CCN(c3ccc(-n4cnn(C(C)C)c4=O)cc3)CC2)c(OC)c1 (stereo not shown) [Compound 97]
31.6 to 316 | CCCNC(=O)C(c1ccccc1)C1CCN(c2ccc(-n3cnn(C(C)C)c3=O)cc2)CC1 (stereo not shown) [Compound 99]
31.6 to 316 | CCNC(=O)C(CN1CCN(c2ccc(-n3cnn(C(C)C)c3=O)cc2)CC1)c1ccccc1 (stereo not shown) [Compound 101]
316 to 3160 | COCCNC(=O)C(CN1CCN(c2ccc(-n3cnn(C(C)C)c3=O)cc2)CC1)c1ccccc1 (stereo not shown) [Compound 105]
31.6 to 316 | CCCCNC(=O)C(CN1CCN(c2ccc(-n3cnn(C(C)C)c3=O)cc2)CC1)c1ccccc1 (stereo not shown) [Compound 106]
31.6 to 316 | CCCCCNC(=O)C(CN1CCN(c2ccc(-n3cnn(C(C)C)c3=O)cc2)CC1)c1ccccc1 (stereo not shown) [Compound 109]
31.6 to 316 | CCC(C)n1ncn(-c2ccc(N3CCN(C(C(=O)NCCC#N)c4ccccc4)CC3)cc2)c1=O (stereo not shown) [Compound 110]
316 to 3160 | CCCCCNC(=O)C(c1ccccc1)N1CCN(c2ccc(-n3c(C)nn(C(C)C)c3=O)cc2)CC1 (stereo not shown) [Compound 111]
316 to 3160 | Cc1nn(C(C)C)c(=O)n1-c1ccc(N2CCN(C(C(=O)Nc3ccccc3)c3ccccc3)CC2)cc1 (stereo not shown) [Compound 112]
31.6 to 316 | CCNC(=O)C(c1ccccc1)N1CCN(c2ccc(-n3ncn(C(C)C)c3=O)cc2)CC1 (stereo not shown) [Compound 113]
316 to 3160 | CCCNC(=O)C(c1ccccc1)N1CCN(c2ccc(-n3ncn(C(C)C)c3=O)cc2)CC1 (stereo not shown) [Compound 114]
